Columns and labels:
[1] = test system: intrapulmonary arteries; assay: Isometric contraction of intrapulmonary arteries induced by serotonin or endothelin
Method: Intrapulmonary arteries of the first order (IPA1) were divided into short tubular segments with an external diameter of 1.5-2 mm and used for isometric contraction measurement. Arterial rings were mounted in isolated organ bath systems, containing Krebs solution (containing 118.4 mM NaCl, 4.7 mM KCl, 1.2 mM MgSO4, 25 mM NaHCO3, 1.2 mM KH2PO4, 2.5 mM CaCl2) and 11.1 mM D-glucose, pH 7.4 adjusted with NaOH) at 37° C. and bubbled continuously with […]. An initial load of 0.8 to 1 g was applied to arterial rings. Tissues were allowed to equilibrate for 1 hour in Kreb's solution and washed out every 15 minutes. A high KCl solution (80 mM) was applied in order to obtain a reference contraction used to normalize subsequent contractile responses.
Contractile responses to different agonists were then tested by constructing a cumulative concentration-response curve (CCRC) to serotonin (5HT, 10^−4 to 10^−[…]) or endothelin (ET-1, 10^−7 to 10^−10 M). When indicated, AOL or AOX were preincubated during 30 minutes, and then CCRC to agonist was performed in the presence of the drug. High potassium solutions were obtained by substituting an equimolar amount of KCl for NaCl from Kreb's solution. Endothelial function was tested on each ring by examining the relaxation induced by 10 μM carbamylcholine on 0.3 μM Phe-induced preconstricted pulmonary arterial rings. Passive and active mechanical properties were assessed using transducer systems, coupled to IOX software (EMKA Technologies, Paris, France) in order to facilitate data acquisition and analysis.

[2] = test system: site IQ; assay: ROS/H2O2 production, site targeted individually (96-well Amplex Red), 10 mM succinate alone; format: biochemical, rat; conditions: 0 to 80 μM; effect at concentrations as low as 2.5 μM
Method: After freshly isolating mitochondria from rat heart, then measuring protein quantity of the mitochondrial suspension, H2O2 production in response to the exogenous addition of increasing concentrations of AOL, AOX and Oltipraz was measured fluorimetrically with Amplex Red and horseradish peroxidase (HRP).
The two major sites of mitochondrial ROS/H2O2 production were targeted individually using the combination of succinate (energy substrate of respiratory complex 2) and known inhibitors of respiratory chain, namely for site IQ, 10 mM succinate alone (CCCP as positive control) and for site IIIQouter, 10 mM succinate, 4 μM rotenone and 2.5 μM antimycin A (myxothiazol as positive control). These “reaction” solutions were designed to generate maximal rates of ROS/H2O2 production predominantly from a single site within the chain (Quinlan et al. 2013. Redox Biol. 1:304-12).
For measurement, a working solution of 50 μM Amplex red reagent and 20 μg/ml HRP was mixed to the reaction buffer into the corresponding wells of a 96-well plate (Greiner 96 F-bottom), in the absence or presence of increasing concentrations (from 0 to 80 μM) of AOL, AOX or Oltipraz. Addition of mitochondria to a final concentration of 0.125 mg/mL per well initiated the assay. The appropriate total volume per microplate well was 200 μL.
Plates were incubated in the dark at room temperature for 20-25 minutes. A double orbital shaking (100 rpm-3 seconds) was applied before reading the endpoint fluorescence values on a CLARIOstar plate reader (BMG LABTECH GmbH, Germany). In fact, H2O2 reacts with Amplex Red in a 1:1 stoichiometry, yielding the fluorescent compound resorufin that was analyzed using the following optic settings (excitation wavelength at 546-20 nm; emission at 600-40 nm; gain: 750).
Also, an H2O2 standard curve, with concentrations ranging from 0 to 5 μM, was prepared in the experimental buffer that consisted in (in mM): 140 sucrose, 100 KCl, 1 EGTA, 20 MgCl2, 10 KH2PO4, and 1 g/L (w/v) BSA essentially fatty acid free (pH 7.2). […]

SMILES	response of serotonin- and endothelin-induced contractions compared with AOL ([1]; AOX at 10 μM)	serotonin-induced contractions ([1]; higher concentrations of AOX (above 10 μM))	inhibition of ROS production in site IQ [2]	endothelin-induced contractions ([1]; AOL preincubated 30 minutes)	serotonin-induced contractions ([1]; AOL preincubated 30 minutes)
Oc1ccc(-c2cc(=S)ss2)cc1 [AOX, 5-(4-hydroxyphenyl)-3H-1,2-dithiole-3-thione]	same pattern of response	contractions induced with 10^−4 M of serotonin could be relaxed	strongly inhibit the ROS production by complex I		
COc1ccc(-c2cc(=S)ss2)cc1 [AOL, 5-(4-methoxyphenyl)-3H-1,2-dithiole-3-thione]			strongly inhibit the ROS production by complex I	no effect on endothelin-induced contractions	could relax contractions induced with up to 5·10^−5 M of serotonin

From US11484529B2, “Desmethylanethole trithione derivatives for the treatment of diseases linked to mitochondrial reactive oxygen species (ROS) production” (OP2 Drugs, priority 2017, dated 2022)
